According to US7361658B2, “2-acylaminothiazole derivative or salt thereof” (Astellas Pharma Inc., priority 2003, dated 2008):
Like-named read-outs stand apart in the source and are kept apart here.

Experiments:
[1] = molecular target: T1, human c-mpl-Ba/F3 cells (Homo sapiens, UniProt P40238); assay: Mouse oral administration test: human c-mpl-Ba/F3 cell growth activity of a plasma after oral administration; assay type: in vivo; settings: male ICR mouse, plasma 2 h after administration, maximum activity of each test compound = 100%
T1 construct: expressed in transfected cells; host or cells: Ba/F3 (murine pro-B cells) expressing human c-mpl
T1 sequence (P40238 26-635): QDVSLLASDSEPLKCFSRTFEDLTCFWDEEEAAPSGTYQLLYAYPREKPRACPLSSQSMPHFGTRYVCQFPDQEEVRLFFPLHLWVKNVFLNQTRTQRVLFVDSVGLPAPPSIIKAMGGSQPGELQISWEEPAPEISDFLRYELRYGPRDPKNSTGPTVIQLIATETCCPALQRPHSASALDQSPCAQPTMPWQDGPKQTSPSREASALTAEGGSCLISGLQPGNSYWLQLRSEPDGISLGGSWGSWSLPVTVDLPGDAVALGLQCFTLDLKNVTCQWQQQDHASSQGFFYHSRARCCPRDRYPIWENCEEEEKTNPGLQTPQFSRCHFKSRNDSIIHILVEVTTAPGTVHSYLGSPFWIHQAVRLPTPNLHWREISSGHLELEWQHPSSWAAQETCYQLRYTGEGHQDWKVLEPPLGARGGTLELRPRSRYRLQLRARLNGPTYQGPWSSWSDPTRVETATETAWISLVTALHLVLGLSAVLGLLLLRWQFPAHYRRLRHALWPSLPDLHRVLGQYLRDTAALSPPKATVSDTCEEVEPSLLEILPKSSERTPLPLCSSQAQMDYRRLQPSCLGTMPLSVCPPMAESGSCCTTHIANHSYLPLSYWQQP
Procedure: (iii) Mouse Oral Administration Test
3 mg/kg or 10 mg/kg (100 mg/kg in Comparative Compounds 1 to 3) of a test compound dissolved or suspended in a 0.5% methylcellulose aqueous solution was orally administered to a male ICR mouse. After 2 hours from administration, a blood was sampled from the subabdominal large vein using 1/10-volume 3.8% sodium citrate as an anticoagulant. Centrifugation was performed at 12,000 rpm for 3 minutes. The resulting plasma was heated at 56° C. for 30 minutes, and added to a system of the human c-mpl-Ba/F3 cell growth test described in (i) such that the final concentration of the plasma reached 0.3%, 1% or 3% (10% in Comparative Compounds 1 to 3) to measure a cell growth activity. The cell growth activity (%) of each plasma was measured when the maximum cell growth activity of each test compound was defined as 100%.

[2] = molecular target: T1, human c-mpl-Ba/F3 cells; assay: Human c-mpl-Ba/F3 cell growth test; assay type: cell-based; settings: for Emax / Efficacy: maximum cell growth activity; for Emax: read-out: Efficacy
Procedure: (i) Human c-mpl-Ba/F3 Cell Growth Test
In a 96-well microplate, 2×10^5 cells/ml of human c-mpl-Ba/F3 cells were cultured at 37° C. in 10% fetal bovine serum-containing RPMI1640 medium (100 μl/well) containing each test compound at each concentration. After 24 hours from the start-up of culture, 10 μl/well of WST-1/1-methoxy PMS (cell counting kit, Dojin) was added. Immediately after addition and 2 hours after addition, absorbance of A450/A650 was measured with a microplate reader (Model 3350: Bio-Rad), and an increase in absorbance for 2 hours was defined as a growth activity of each test compound.
pot: Concentration of each test compound at which to accelerate cell growth by 30% of a maximum cell growth activity of compound A (compound A and rhTPO in rhTPO)
Efficacy: Maximum cell growth activity of each test compound when a maximum cell growth activity of compound A (compound A and rhTPO in rhTPO) is defined as 100%.
Compound A refers to a compound in Example 9 of the foregoing Patent Document 10.

[3] = 100 mg/kg p.o., dilution rate 10%
[4] = concentration at which cell growth is accelerated by 30% of the maximum cell growth activity of compound A, 24 h culture
[5] = maximum of compound A defined as 100%
[6] = concentration at which cell growth is accelerated by 30% of the maximum cell growth activity of rhTPO (applies to compound A and rhTPO)
[7] = maximum of rhTPO defined as 100% (applies to compound A and rhTPO)
[8] = 3 mg/kg p.o., dilution rate 0.3%

| Pot [2, 4] | Emax [2, 5] | Compound | further results |
| --- | --- | --- | --- |
| 2.0 nM | 94% | CN(Cc1sc(NC(=O)c2cnc(N3CCC(C(=O)O)CC3)c(Cl)c2)nc1-c1cc(Cl)cs1)C1CCCCC1 [Example 90, 1-{3-chloro-5-[(4-(4-chlorothiophen-2-yl)-5-{[cyclohexyl(methyl)amino]methyl}thiazol-2-yl)carbamoyl]-2-pyridyl}piperidine-4-carboxylic acid] | Cell growth activity [1, 8]: ≧80% |
| 3.1 nM | 108% | CN(Cc1sc(NC(=O)c2cnc(N3CCC(C(=O)O)CC3)c(Cl)c2)nc1-c1cc(Cl)cs1)C1CC1 [Example 101, 1-{3-chloro-5-[(4-(4-chlorothiophen-2-yl)-5-{[cyclopropyl(methyl)amino]methyl}thiazol-2-yl)carbamoyl]-2-pyridyl}piperidine-4-carboxylic acid] | Cell growth activity ([1]; 3 mg/kg p.o., dilution rate 1%): 76% |
| 1.5 nM | 112% | C[C@@H]1CCCN1Cc1sc(NC(=O)c2cnc(N3CCC(C(=O)O)CC3)c(Cl)c2)nc1-c1cc(Cl)cs1 [Example 107, 1-{3-chloro-5-[(4-(4-chlorothiophen-2-yl)-5-{[(2R)-2-methylpyrrolidin-1-yl]methyl}thiazol-2-yl)carbamoyl]-2-pyridyl}piperidine-4-carboxylic acid] | – |
| 3.9 nM | 95% | C[C@H]1CCN(Cc2sc(NC(=O)c3cnc(N4CCC(C(=O)O)CC4)c(Cl)c3)nc2-c2cc(Cl)cs2)C1 [Example 109, 1-{3-chloro-5-[(4-(4-chlorothiophen-2-yl)-5-{[(3S)-3-methylpyrrolidin-1-yl]methyl}thiazol-2-yl)carbamoyl]-2-pyridyl}piperidine-4-carboxylic acid] | Cell growth activity ([1]; 3 mg/kg p.o., dilution rate 1%): 59% |
| 6.0 nM | 87% | CO[C@@H](C)CN(C)Cc1sc(NC(=O)c2cnc(N3CCC(C(=O)O)CC3)c(Cl)c2)nc1-c1cc(Cl)cs1 [Example 111, 1-{3-chloro-5-[(4-(4-chlorothiophen-2-yl)-5-{[[(2S)-2-methoxypropyl](methyl)amino]methyl}thiazol-2-yl)carbamoyl]-2-pyridyl}piperidine-4-carboxylic acid] | – |
| 3.6 nM | 102% | CCCCN(C)Cc1sc(NC(=O)c2cnc(N3CCC(CO)CC3)c(Cl)c2)nc1-c1cc(Cl)cs1 [Example 150, N-[5-{[butyl(methyl)amino]methyl}-4-(4-chlorothiophen-2-yl)thiazol-2-yl]-5-chloro-6-[4-(hydroxymethyl)piperidino]nicotinamide] | Cell growth activity [1, 8]: 28% |
| 8.4 nM | 99% | CCCCN(C)Cc1sc(NC(=O)c2cnc(NCCCO)c(Cl)c2)nc1-c1cc(Cl)cs1 [Example 151, N-[5-{[butyl(methyl)amino]methyl}-4-(4-chlorothiophen-2-yl)thiazol-2-yl]-5-chloro-6-[(3-hydroxypropyl)amino]nicotinamide] | Cell growth activity ([1]; 10 mg/kg p.o., dilution rate 3%): 24% |
| 4.4 nM | 102% | C[C@@H]1CCCN1Cc1sc(NC(=O)c2cnc(N3CC(CC(=O)O)C3)c(Cl)c2)nc1-c1cc(Cl)cs1 [Example 222, (1-{3-chloro-5-[(4-(4-chlorothiophen-2-yl)-5-{[(2R)-2-methylpyrrolidin-1-yl]methyl}thiazol-2-yl)carbamoyl]-2-pyridyl}azetidin-3-yl)acetic acid] | – |
| 4.6 nM | 88% | C[C@@H]1CCCN1Cc1sc(NC(=O)c2cnc(N(C)CCCC(=O)O)c(Cl)c2)nc1-c1cc(Cl)cs1 [Example 226, 4-[{3-chloro-5-[(4-(4-chlorothiophen-2-yl)-5-{[(2R)-2-methylpyrrolidin-1-yl]methyl}thiazol-2-yl)carbamoyl]-2-pyridyl}(methyl)amino]butyric acid] | – |
| 3.2 nM | 88% | CC(C)N(C)Cc1sc(NC(=O)c2cnc(N(C)CCCC(=O)O)c(Cl)c2)nc1-c1cc(Cl)cs1 [Example 227, 4-[{3-chloro-5-[(4-(4-chlorothiophen-2-yl)-5-{[isopropyl(methyl)amino]methyl}thiazol-2-yl)carbamoyl]-2-pyridyl}(methyl)amino]butyric acid] | – |

Further lines, the compound ahead of its results:

| Compound | Pot [2, 4] | Emax [2, 5] | further results |
| --- | --- | --- | --- |
| O=C1NC(=S)S/C1=C\c1ccc(C(=O)Nc2nc(-c3ccc(Cl)c(Cl)c3)cs2)cc1 [Comparative Compound 1, reference compound] | 4.4 nM | 101% | Cell growth activity [1, 3]: <10% |
| O=C(O)/C(Cl)=C/c1ccc(C(=O)Nc2nc(-c3ccc(Cl)c(Cl)c3)cs2)cc1 [Comparative Compound 2, reference compound] | 2.1 nM | 96% | Cell growth activity [1, 3]: <10% |
| Cc1sc(NC(=O)c2ccc(/C=C(\Cl)C(=O)O)cc2)nc1-c1cccc(C(F)(F)F)c1 [Comparative Compound 3, reference compound] | 6.9 nM | 96% | Cell growth activity [1, 3]: <10% |
| COc1cc(C(=O)Nc2nc(-c3ccc(F)cc3)c(N3CCN(C4CCCCC4)CC3)s2)ccn1 [Comparative Compound 4, reference compound] | 251 nM | 95% | – |
| O=C(Nc1nc(-c2cc(Cl)cs2)c(N2CCN(C3CCCCC3)CC2)s1)c1ccc(OCCO)c(Cl)c1 [Compound A, reference compound] | – | – | Pot [2, 6]: 10 nM; Emax [2, 7]: 87% |
| CN(C)Cc1sc(NC(=O)c2cnc(N3CCC(C(=O)O)CC3)c(Cl)c2)nc1-c1cc(Cl)cs1 [Example 65, 1-(3-chloro-5-{[4-(4-chlorothiophen-2-yl)-5-(dimethylaminomethyl)thiazol-2-yl]carbamoyl}-2-pyridyl)piperidine-4-carboxylic acid] | 4.3 nM | 114% | Cell growth activity ([1]; 3 mg/kg p.o., dilution rate 3%): ≧80% |
| O=C(Nc1nc(-c2cc(Cl)cs2)c(CN2CCCCCC2)s1)c1cnc(N2CCC(C(=O)O)CC2)c(Cl)c1 [Example 84, 1-(5-{[5-(azepan-1-ylmethyl)-4-(4-chlorothiophen-2-yl)thiazol-2-yl]carbamoyl}-3-chloro-2-pyridyl)piperidine-4-carboxylic acid] | 4.2 nM | 103% | Cell growth activity ([1]; 3 mg/kg p.o., dilution rate 1%): ≧80% |
| O=C(Nc1nc(-c2cc(Cl)cs2)c(CN2CCCCCCC2)s1)c1cnc(N2CCC(C(=O)O)CC2)c(Cl)c1 [Example 85] | 3.3 nM | – | Cell growth activity ([1]; 3 mg/kg p.o., dilution rate 1%): ≧80%; Efficacy [2, 5]: 107% |
| C[C@H]1CCCN1Cc1sc(NC(=O)c2cnc(N3CCC(C(=O)O)CC3)c(F)c2)nc1-c1cc(Cl)cs1 [Example 314, 1-{5-[(4-(4-chlorothiophen-2-yl)-5-{[(2S)-2-methylpyrrolidin-1-yl]methyl}thiazol-2-yl)carbamoyl]-3-fluoro-2-pyridyl}piperidine-4-carboxylic acid] | – | – | Cell growth activity ([1]; 3 mg/kg p.o., dilution rate 3%): 52% |
| rhTPO: thrombopoietin (TPO), a c-Mpl ligand; a protein | – | – | Pot [2, 6]: 0.012 nM; Efficacy [2, 7]: 100% |
